Patent US9770026B2, “Substituted pyrimidine compound and uses thereof” (Shenyang Sinochem Agrochemicals R&D Co., Ltd., priority 2012, dated 2017)

How the values were obtained:
[1] = system: corn rust; assay: protectant activity in vivo against corn rust; details: for pest or weed control at 6.25 µg/mL / pest or weed control at 25 µg/mL / pest or weed control at 100 µg/mL / pest or weed control at 400 µg/mL: Zea mays, 168 h, protectant activity; for pest or weed control at 6.25 µg/mL: read-out: control effect against corn rust (%), 6.25 mg/L; for pest or weed control at 25 µg/mL: read-out: control effect against corn rust (%), 25 mg/L; for pest or weed control at 100 µg/mL: read-out: control effect against corn rust (%), 100 mg/L; for pest or weed control at 400 µg/mL: read-out: control effect against corn rust (%), 400 mg/L
[2] = system: wheat powdery mildew; assay: protectant activity in vivo against wheat powdery mildew; details: for pest or weed control at 6.25 µg/mL: read-out: control effect against wheat powdery mildew (%), 6.25 mg/L; for pest or weed control at 25 µg/mL: read-out: control effect against wheat powdery mildew (%), 25 mg/L; for pest or weed control at 100 µg/mL: read-out: control effect against wheat powdery mildew (%), 100 mg/L; for pest or weed control at 400 µg/mL: read-out: control effect against wheat powdery mildew (%), 400 mg/L
[3] = system: armyworm; assay: bioactivity test against armyworm, airbrush spray; type: in vivo; details: for pest or weed control at 600 µg/mL: 600 mg/L
[4] = system: Green peach aphids (Myzus Persicae Sulzer); assay: bioactivity test against green peach aphid, airbrush foliar spray; type: in vivo; details: for pest or weed control at 10 µg/mL / pest or weed control at 100 µg/mL / pest or weed control at 600 µg/mL / Insecticidal activity against peach aphid (%): contrastive test; for pest or weed control at 10 µg/mL / pest or weed control at 100 µg/mL / pest or weed control at 600 µg/mL: read-out: Insecticidal activity against peach aphid (%)
Outline: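 Death rate was scored at 48 hrs, held at 25±1 C and 60±5% RH, following airbrush foliar spray (0.5 mL, 10 psi) onto cabbage leaf discs bearing about 15-30 aphids. Test solutions: compound dissolved in 1:1 acetone:methanol, brought to concentration with 0.1% tween 80 water.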

[5] = system: carmine spider mite; assay: bioactivity test against carmine spider mite, airbrush spray; type: in vivo
Outline: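 Broadbean seedlings infested with adult mites were sprayed with compound (acetone/methanol stock diluted in 0.1% Tween 80 water) by airbrush at 0.7 kg/cm^2, 0.5 ml. Three replicates were run. Mortality was scored after 72 hrs.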

[6] = system: Diamond back moth; assay: insecticidal activity against diamond back moth, airbrush spray; type: in vivo; details: for pest or weed control at 600 µg/mL: 600 mg/L
Outline: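 Airbrush leaf-disc spray test: both faces of 2 cm cabbage discs received 0.5 ml of test solution at 0.7 kg/cm^2. Solutions were made in acetone:methanol (1:1) and brought to concentration with 0.1% Tween 80 in water. Ten second-instar larvae per disc, triplicates, were held at 25° C and 60˜70% R.H., with mortality recorded at 72 hrs.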

[7] = Triticum aestivum, 168 h, protectant activity
[8] = 72 h, read-out: Insecticidal activity against armyworm (%)
[9] = Myzus persicae, foliar, 48 h, 10 mg/L
[10] = Myzus persicae, foliar, 48 h, 100 mg/L
[11] = Myzus persicae, foliar, 48 h, 600 mg/L
[12] = Tetranychus cinnabarinus, 72 h, 600 mg/L, contrastive test, read-out: Insecticidal activity against carmine spider mite (% )
[13] = 600 ppm, mortality after 72 hrs

SMILES: Cc1ncnc(NC(C)c2ccc(Oc3ccc(C(F)(F)F)cc3Cl)cc2)c1Cl (stereo not drawn) [CK30, reference compound]
- pest or weed control at 6.25 µg/mL [1]: 0%
- pest or weed control at 25 µg/mL [1]: 0%
- pest or weed control at 100 µg/mL [1]: 0%
- pest or weed control at 400 µg/mL [1]: 0%
- pest or weed control at 6.25 µg/mL [2, 7]: 0%
- pest or weed control at 25 µg/mL [2, 7]: 20%
- pest or weed control at 100 µg/mL [2, 7]: 80%
- pest or weed control at 400 µg/mL [2, 7]: 100%
- pest or weed control at 600 µg/mL [3, 8]: 57%
- pest or weed control at 10 µg/mL [4, 9]: 0%
- pest or weed control at 100 µg/mL [4, 10]: 50%
- pest or weed control at 600 µg/mL [4, 11]: 93%
- pest or weed control at 10 µg/mL ([5]; Tetranychus cinnabarinus, 72 h, 10 mg/L, contrastive test, read-out: Insecticidal activity against carmine spider mite (% )): 28%
- pest or weed control at 100 µg/mL ([5]; Tetranychus cinnabarinus, 72 h, 100 mg/L, contrastive test, read-out: Insecticidal activity against carmine spider mite (% )): 100%
- pest or weed control at 600 µg/mL [5, 12]: 100%
- pest or weed control at 600 µg/mL ([6]; 72 h): 0%

SMILES: CCc1ncnc(NCc2ccc(Oc3nc(Cl)c(Cl)cc3Cl)cc2)c1Cl [CK36, reference compound]
- pest or weed control at 6.25 µg/mL [1]: 0%
- pest or weed control at 25 µg/mL [1]: 40%
- pest or weed control at 100 µg/mL [1]: 60%
- pest or weed control at 400 µg/mL [1]: 100%
- pest or weed control at 6.25 µg/mL [2, 7]: 0%
- pest or weed control at 25 µg/mL [2, 7]: 60%
- pest or weed control at 100 µg/mL [2, 7]: 80%
- pest or weed control at 400 µg/mL [2, 7]: 100%
- pest or weed control at 600 µg/mL [3, 8]: 0%
- pest or weed control at 10 µg/mL [4, 9]: 0%
- pest or weed control at 100 µg/mL [4, 10]: 14%
- pest or weed control at 600 µg/mL [4, 11]: 90%
- pest or weed control at 600 µg/mL [5, 12]: 0%
- pest or weed control at 10 µg/mL ([6]; 72 h, 10 mg/L): 0%
- pest or weed control at 100 µg/mL ([6]; 72 h, 100 mg/L): 0%
- pest or weed control at 600 µg/mL ([6]; 72 h): 20%

SMILES: CCc1ncnc(NCCc2ccc(Oc3ccc(C(F)(F)F)cc3)cc2)c1Cl.Cl [II-19334]
- protectant activity against corn rust in vivo ([1]; 400 ppm): 100%
- protectant activity against wheat powdery mildew in vivo ([2]; 25 ppm): 100%
- protectant activity against wheat powdery mildew in vivo ([2]; 100 ppm): 100%
- protectant activity against wheat powdery mildew in vivo ([2]; 400 ppm): 100%
- pest or weed control at 1.6 µg/mL ([2]; Triticum aestivum, 168 h, read-out: control effect against wheat powdery mildew (%), 1.6 mg/L, protectant activity): 60%
- pest or weed control at 6.25 µg/mL [2, 7]: 100%
- pest or weed control at 25 µg/mL [2, 7]: 100%
- pest or weed control at 100 µg/mL [2, 7]: 100%
- pest or weed control at 400 µg/mL [2, 7]: 100%
- pest or weed control at 6.25 ppm ([2]; Triticum aestivum, 168 h, read-out: protectant activity against wheat powdery mildew in vivo, 6.25 ppm): 100%
- control (test results against armyworm) ([3]; 600 ppm, mortality after 72 h): 100%
- pest or weed control at 10 µg/mL ([3]; 72 h, 10 mg/L, read-out: Insecticidal activity against armyworm (%)): 44%
- pest or weed control at 100 µg/mL ([3]; 72 h, 100 mg/L, read-out: Insecticidal activity against armyworm (%)): 84%
- pest or weed control at 600 µg/mL [3, 8]: 100%
- pest or weed control at 100 ppm ([3]; 72 h, 100 ppm, mortality after 72 h): 80 to 99%
- Insecticidal activity against peach aphid (%) ([4]; 1.25 mg/L): 67%
- Insecticidal activity against peach aphid (%) ([4]; 2.5 mg/L): 83%
- Insecticidal activity against peach aphid (%) ([4]; 5 mg/L): 96%
- Insecticidal activity against peach aphid (%) ([4]; 10 mg/L): 100%
- Insecticidal activity against peach aphid (%) ([4]; 100 mg/L): 100%
- Insecticidal activity against peach aphid (%) ([4]; 600 mg/L): 100%
- control (test results against green peach aphid) ([4]; 10 ppm, death rate after 48 hrs): 100%
- control (test results against green peach aphid) ([4]; 100 ppm, death rate after 48 hrs): 100%
- control (test results against green peach aphid) ([4]; 600 ppm, death rate after 48 hrs): 100%
- pest or weed control at 2.5 ppm ([4]; Myzus persicae, foliar, 48 h, 2.5 ppm, death rate after 48 hrs): 80 to 99%
- Insecticidal activity against carmine spider mite (% ) ([5]; 2.5 mg/L): 87%
- Insecticidal activity against carmine spider mite (% ) ([5]; 5 mg/L): 100%
- Insecticidal activity against carmine spider mite (% ) ([5]; 10 mg/L, contrastive test): 100%
- Insecticidal activity against carmine spider mite (% ) ([5]; 100 mg/L, contrastive test): 100%
- Insecticidal activity against carmine spider mite (% ) ([5]; 600 mg/L, contrastive test): 100%
- control against carmine spider mite ([5]; 10 ppm, mortality after 72 hrs): 100%
- control against carmine spider mite ([5]; 100 ppm, mortality after 72 hrs): 100%
- control against carmine spider mite [5, 13]: 100%
- pest or weed control at 2.5 ppm ([5]; Tetranychus cinnabarinus, 72 h, 2.5 ppm, mortality after 72 hrs): 80 to 99%
- pest or weed control at 5 ppm ([5]; Tetranychus cinnabarinus, 72 h, 5 ppm, mortality after 72 hrs): 100%
- control (test results against diamond back moth) [6, 13]: 100%
- pest or weed control at 100 ppm ([6]; 72 h, 100 ppm, mortality after 72 hrs, read-out: control (test results against diamond back moth)): 100%
